“And” between values parts separate entries of the source, which are not always exact repeats. Equal entries are not always repeated. Where two headings read alike, the source gives them in different places.
Target: T1, MRGPRX4 (Homo sapiens, UniProt Q96LA9)
T1 construct: expressed in transfected cells; host or cells: HEK293T
Test: IP1 accumulation HTRF assay, MRGPRX4
Assay type: cell-based
Parameters: key to IP1 Basal / IP1 accumulation with YM (Figure 1c) / response to agonist, MRGPRX4 / IP1 accumulation: % IP1: unstimulated mock-transfected = 0%, fully stimulated MRGPRX4 = 100%

T1 sequence (Q96LA9 whole entry): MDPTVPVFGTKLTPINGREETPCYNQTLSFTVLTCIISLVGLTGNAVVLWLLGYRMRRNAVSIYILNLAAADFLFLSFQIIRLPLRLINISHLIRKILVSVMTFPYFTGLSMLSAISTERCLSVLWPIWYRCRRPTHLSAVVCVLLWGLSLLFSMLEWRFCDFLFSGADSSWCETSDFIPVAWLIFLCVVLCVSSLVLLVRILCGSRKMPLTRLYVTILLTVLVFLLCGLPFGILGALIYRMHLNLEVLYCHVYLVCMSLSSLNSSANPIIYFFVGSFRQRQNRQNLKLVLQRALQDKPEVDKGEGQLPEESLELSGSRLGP

CC(C)[C@H]1CC[C@H](C(=O)N[C@H](Cc2ccccc2)C(=O)O)CC1 [Nateglinide]
EC50 (MRGPRX4 0.25 pg DNA/cell, individual experiments, read-out: potency (Figure 1b top) (converted)): 13.5 µM (2×) and 12.5 µM
Emax (MRGPRX4 0.5 pg DNA/cell, individual experiments, read-out: efficacy (Figure 1b bottom)): 95.7%
EC50 (MRGPRX4 0.5 pg DNA/cell, individual experiments, read-out: potency (Figure 1b top) (converted)): 12.3 µM and 9.23 µM
Emax (MRGPRX4 1 pg DNA/cell, individual experiments, read-out: efficacy (Figure 1b bottom)): 104%
EC50 (MRGPRX4 1 pg DNA/cell, individual experiments, read-out: potency (Figure 1b top) (converted)): 10.9 µM and 9.68 µM and 8.2 µM
Emax (MRGPRX4 2 pg DNA/cell, individual experiments, read-out: efficacy (Figure 1b bottom)): 97.2%
EC50 (MRGPRX4 2 pg DNA/cell, individual experiments, read-out: potency (Figure 1b top) (converted)): 6.87 µM and 6.27 µM and 6.64 µM
IP1 Basal (MRGPRX4 (Fig. 1A), HEK293T, normalized to 100 μM nateglinide): 14.95
EC50 (MRGPRX4 (Fig. 1A), HEK293T, normalized to 100 μM nateglinide, read-out: IP1 EC50): 10.7 µM
EC50 (MRGPRX4, HEK293T (Fig. 1A), read-out: EC50 concentration, IP1 accumulation): 10.6 µM
IP1 accumulation (MRGPRX4: 2pg/cell, log [Nateglinide] (M) -4, Fig S1b/c): 100
IP1 accumulation (MRGPRX4: 2pg/cell, log [Nateglinide] (M) -4.69897, Fig S1b/c): 88.6878 and 83.9734
IP1 accumulation (MRGPRX4: 2pg/cell, log [Nateglinide] (M) -5.39794, Fig S1b/c): 45.9251 and 47.3838
IP1 accumulation (MRGPRX4: 2pg/cell, log [Nateglinide] (M) -6.09691, Fig S1b/c): 18.7171 and 20.7267
IP1 accumulation (MRGPRX4: 2pg/cell, log [Nateglinide] (M) -6.79588, Fig S1b/c): 11.3987 and 15.6075
IP1 accumulation (MRGPRX4: 2pg/cell, log [Nateglinide] (M) -7.49485, Fig S1b/c): 10.9025 and 14.1936
IP1 Basal (MRGPRX4 DNA 0.25 pg/cell (Fig. S1)): 4.926
EC50 (MRGPRX4 DNA 0.25 pg/cell (Fig. S1), read-out: IP1 EC50): 13.6 µM
Emax (MRGPRX4 DNA 0.25 pg/cell (Fig. S1), read-out: IP1 Emax): 84.4%
Emax (MRGPRX4 DNA 0.25 pg/cell (Fig. S1), read-out: IP1 span): 79.5%
IP1 Basal (MRGPRX4 DNA 0.5 pg/cell (Fig. S1)): 6.421
EC50 (MRGPRX4 DNA 0.5 pg/cell (Fig. S1), read-out: IP1 EC50): 11 µM
Emax (MRGPRX4 DNA 0.5 pg/cell (Fig. S1), read-out: IP1 Emax): 97.5%
Emax (MRGPRX4 DNA 0.5 pg/cell (Fig. S1), read-out: IP1 span): 91%
IP1 Basal (MRGPRX4 DNA 1 pg/cell (Fig. S1)): 9.219
EC50 (MRGPRX4 DNA 1 pg/cell (Fig. S1), read-out: IP1 EC50): 9.79 µM
Emax (MRGPRX4 DNA 1 pg/cell (Fig. S1), read-out: IP1 Emax): 106%
Emax (MRGPRX4 DNA 1 pg/cell (Fig. S1), read-out: IP1 span): 96.7%
IP1 Basal (MRGPRX4 DNA 2 pg/cell (Fig. S1)): 11.77
EC50 (MRGPRX4 DNA 2 pg/cell (Fig. S1), read-out: IP1 EC50): 6.8 µM
Emax (MRGPRX4 DNA 2 pg/cell (Fig. S1), read-out: IP1 Emax): 108%
Emax (MRGPRX4 DNA 2 pg/cell (Fig. S1), read-out: IP1 span): 96.3%
EC50 (MRGPRX4 DNA […] (Fig. S1), read-out: IP1 EC50): 13.9 µM
Emax (MRGPRX4 DNA […] (Fig. S1), read-out: IP1 Emax): 74.8%
Emax (MRGPRX4 DNA […] (Fig. S1), read-out: IP1 span): 72.2%
IP1 accumulation (MRGPRX4 alone, log [Nateglinide] (M) -4.69897, Fig S3a-c): 73.8798 and 88.0796
IP1 accumulation (MRGPRX4 alone, log [Nateglinide] (M) -5.39794, Fig S3a-c): 42.3002 and 52.0108
IP1 accumulation (MRGPRX4 alone, log [Nateglinide] (M) -6.09691, Fig S3a-c): 21.697 and 30.974
IP1 accumulation (MRGPRX4 alone, log [Nateglinide] (M) -6.79588, Fig S3a-c): 15.7135 and 25.7363
IP1 accumulation (MRGPRX4 alone, log [Nateglinide] (M) -7.49485, Fig S3a-c): 14.3426 and 24.4649
normalized IP1 accumulation (SP-FLAG-Nluc-HT7-MRGX4_Tet-GFP10-1D4, log [agonist] (M) -4.09691): 53.7873 and 50.7716
normalized IP1 accumulation (SP-FLAG-Nluc-HT7-MRGX4_Tet-GFP10-1D4, log [agonist] (M) -4.79588): 39.105 and 47.513
normalized IP1 accumulation (SP-FLAG-Nluc-HT7-MRGX4_Tet-GFP10-1D4, log [agonist] (M) -5.49485): 24.2093 and 23.5323
normalized IP1 accumulation (SP-FLAG-Nluc-HT7-MRGX4_Tet-GFP10-1D4, log [agonist] (M) -6.19382): 9.755 and 12.1626
normalized IP1 accumulation (SP-FLAG-Nluc-HT7-MRGX4_Tet-GFP10-1D4, log [agonist] (M) -6.89279): 9.31 and 10.6126
normalized IP1 accumulation (SP-FLAG-Nluc-HT7-MRGX4_Tet-GFP10-1D4, log [agonist] (M) -7.59176): 10.0922 and 8.039
normalized IP1 accumulation (SP-FLAG-Nluc-HT7-MRGX4_Tet-GFP10-1D4 no dox, log [agonist] (M) -4.79588): 9.836 and 10.4491
normalized IP1 accumulation (SP-FLAG-Nluc-HT7-MRGX4_Tet-GFP10-1D4 no dox, log [agonist] (M) -5.49485): 7.573 and 7.949
normalized IP1 accumulation (SP-FLAG-Nluc-HT7-MRGX4_Tet-GFP10-1D4 no dox, log [agonist] (M) -6.19382): 7.652 and 7.516
normalized IP1 accumulation (SP-FLAG-Nluc-HT7-MRGX4_Tet-GFP10-1D4 no dox, log [agonist] (M) -6.89279): 8.115 and 7.953
normalized IP1 accumulation (SP-FLAG-Nluc-HT7-MRGX4_Tet-GFP10-1D4 no dox, log [agonist] (M) -7.59176): 8.427 and 8.747
normalized IP1 accumulation (SP-Flag-MRGX4-1D4, log [agonist] (M) -4): 90.7901 and 99.3577
normalized IP1 accumulation (SP-Flag-MRGX4-1D4, log [agonist] (M) -4.69897): 68.6541 and 83.0667
normalized IP1 accumulation (SP-Flag-MRGX4-1D4, log [agonist] (M) -5.39794): 34.48 and 31.1467
normalized IP1 accumulation (SP-Flag-MRGX4-1D4, log [agonist] (M) -6.09691): 13.1213 and 14.7496
normalized IP1 accumulation (SP-Flag-MRGX4-1D4, log [agonist] (M) -6.79588): 9.479 and 9.146
normalized IP1 accumulation (SP-Flag-MRGX4-1D4, log [agonist] (M) -7.49485): 7.648 and 7.711
normalized IP1 accumulation (SP-Flag-MRGX4-GFP10-1D4, log [agonist] (M) -4.69897): 81.9562 and 74.6812
normalized IP1 accumulation (SP-Flag-MRGX4-GFP10-1D4, log [agonist] (M) -5.39794): 38.7817 and 35.4094
normalized IP1 accumulation (SP-Flag-MRGX4-GFP10-1D4, log [agonist] (M) -6.09691): 15.3576 and 16.0977
normalized IP1 accumulation (SP-Flag-MRGX4-GFP10-1D4, log [agonist] (M) -6.79588): 8.66 and 9.498
normalized IP1 accumulation (SP-Flag-MRGX4-GFP10-1D4, log [agonist] (M) -7.49485): 9.929 and 8.168
IP1 Basal (Tet-On MRGPRX4 1pg/cell, Dox 13 ng/mL (Fig. S5B)): -3.433
EC50 (Tet-On MRGPRX4 1pg/cell, Dox 13 ng/mL (Fig. S5B), read-out: IP1 EC50): 19.2 µM
Emax (Tet-On MRGPRX4 1pg/cell, Dox 13 ng/mL (Fig. S5B), read-out: IP1 Emax): 17.4%
Emax (Tet-On MRGPRX4 1pg/cell, Dox 13 ng/mL (Fig. S5B), read-out: IP1 span): 20.8%
IP1 Basal (Tet-On MRGPRX4 1pg/cell, Dox 40 ng/mL (Fig. S5B)): -3.380
EC50 (Tet-On MRGPRX4 1pg/cell, Dox 40 ng/mL (Fig. S5B), read-out: IP1 EC50): 13.7 µM
Emax (Tet-On MRGPRX4 1pg/cell, Dox 40 ng/mL (Fig. S5B), read-out: IP1 Emax): 18.8%
Emax (Tet-On MRGPRX4 1pg/cell, Dox 40 ng/mL (Fig. S5B), read-out: IP1 span): 22.1%
IP1 Basal (Tet-On MRGPRX4 1pg/cell, Dox 1100 ng/mL (Fig. S5B)): -3.039
EC50 (Tet-On MRGPRX4 1pg/cell, Dox 1100 ng/mL (Fig. S5B), read-out: IP1 EC50): 10.8 µM
Emax (Tet-On MRGPRX4 1pg/cell, Dox 1100 ng/mL (Fig. S5B), read-out: IP1 Emax): 30.6%
Emax (Tet-On MRGPRX4 1pg/cell, Dox 1100 ng/mL (Fig. S5B), read-out: IP1 span): 33.7%
IP1 Basal (Tet-On MRGPRX4 1pg/cell, Dox 3300 ng/mL (Fig. S5B)): -1.008
